Literature values, collected in patent publication US20220249605A1, “Treatment of Mood and Anxiety Disorders” (Icahn School of Medicine At Mount Sinai, priority 2013, published 2022).
Blank lines part the entries; values can stand above or below the compound they belong to. Bridge positions count the residues as written; N and C are the ends. Ends that are not written are not given here.

Experiments:
Y1 receptors = target: T1, Y1 receptors (Homo sapiens, UniProt P25929)
T1 sequence (P25929 1-384): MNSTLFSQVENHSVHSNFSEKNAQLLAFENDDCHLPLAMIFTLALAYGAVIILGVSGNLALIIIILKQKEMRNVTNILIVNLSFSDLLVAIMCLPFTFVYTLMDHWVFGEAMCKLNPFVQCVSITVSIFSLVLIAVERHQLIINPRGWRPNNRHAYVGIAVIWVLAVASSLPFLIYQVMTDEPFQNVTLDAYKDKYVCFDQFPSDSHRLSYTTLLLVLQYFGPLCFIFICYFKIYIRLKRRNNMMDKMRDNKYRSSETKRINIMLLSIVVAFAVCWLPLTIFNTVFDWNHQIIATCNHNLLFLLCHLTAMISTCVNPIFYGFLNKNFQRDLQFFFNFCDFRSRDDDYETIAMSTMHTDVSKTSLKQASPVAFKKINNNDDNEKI

[1] = tested on: norepinephrine-stimulated cAMP accumulation in SK-N-MC cells; details: read-out: EC50, inhibition of norepinephrine-stimulated cAMP accumulation
NPY Y2 receptor = target: T2, NPY Y2 receptor (Homo sapiens, UniProt P49146); details: read-out: IC50, Y2 receptor antagonist
T2 sequence (P49146 1-381): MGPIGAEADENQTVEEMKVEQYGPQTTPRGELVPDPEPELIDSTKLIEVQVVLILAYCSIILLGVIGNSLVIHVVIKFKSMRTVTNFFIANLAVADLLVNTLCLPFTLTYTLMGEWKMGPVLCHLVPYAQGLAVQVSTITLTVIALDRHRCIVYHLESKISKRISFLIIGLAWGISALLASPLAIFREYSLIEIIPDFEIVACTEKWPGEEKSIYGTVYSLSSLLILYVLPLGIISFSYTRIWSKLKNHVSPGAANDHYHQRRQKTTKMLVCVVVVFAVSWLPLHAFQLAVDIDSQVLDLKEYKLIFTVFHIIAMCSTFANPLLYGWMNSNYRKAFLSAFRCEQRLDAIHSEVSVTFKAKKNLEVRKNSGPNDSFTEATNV

[2] = anesthetized rats
[3] = anesthetized rats and dogs

Ki (Y1 receptors): 16 nM
EC50 [1]: 12 nM
Compound: Tyr-Lys-Gly-(Cyclo(Glu^26-Lys^29), Pro^34)-Neuropeptide Y (25-36) (YKGREYIKLITRPRY; lactam 5-8; ends not checked) [H-3972]

IC50 (NPY Y2 receptor): 19 nM
Compound: CN(C)S(=O)(=O)c1ccc(NC(=S)N2CCC(C(O)(c3ccccc3)c3ccccc3)CC2)cc1 [CYM 9484]

Specificity (Y1 receptor) (Y1 receptor): Specific Y1 receptor
Compound: (Leu^31, Pro^34)-Neuropeptide Y [H-3306]

Specificity (Y1 receptor) (Y1 receptor): selective ligand for
Compound: (Leu^31, Pro^34)-Neuropeptide Y [H-8575]
Potency in increasing blood pressure compared with NPY [2]: showing an even higher

Specificity (Y1 receptor) (Y1 receptor): selective NPY agonist
Compound: (Pro^34)-Neuropeptide Y [H-8580]
Effect on blood pressure [3]: increased blood
Inhibitory effects on cardiac vagal action [3]: contrast, showed no
